Measurements published in patent US20230135152A1 (ACURASTEM INCORPORATED, priority 2020, published 2023).

How the values were obtained:
PIKFYVE [1] = biological target: T1, PIKFYVE (Homo sapiens, UniProt Q9Y2I7); assay: PIKFYVE assay (luciferase ADP-Glo kinase assay, Promega); format: biochemical
How it was run: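 Kinase activity measured with a luciferase-based ADP-Glo read-out, which quantifies ADP formed by the enzyme.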

PIKFYVE [2] = biological target: T1, PIKFYVE; assay: Cell-based Pikfyve inhibition activity assay (EEA1 staining, mean vesicle size in BJ fibroblast cells); settings: Table 4, 4 hours treatment, 3 μM Apilimod = 100% inhibition
How it was run: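 BJ fibroblasts treated 4 h at 37° C with eleven 3-fold doses (0.03-3000 nM), then fixed and stained for EEA1. Confocal images (20×, 16 tiles/well) analysed for mean vesicle size. Normalised to 0.5% DMSO (0%) and 3 μM apilimod (100%); dose-response fitted with variable slope.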

T1 sequence (Q9Y2I7 whole entry): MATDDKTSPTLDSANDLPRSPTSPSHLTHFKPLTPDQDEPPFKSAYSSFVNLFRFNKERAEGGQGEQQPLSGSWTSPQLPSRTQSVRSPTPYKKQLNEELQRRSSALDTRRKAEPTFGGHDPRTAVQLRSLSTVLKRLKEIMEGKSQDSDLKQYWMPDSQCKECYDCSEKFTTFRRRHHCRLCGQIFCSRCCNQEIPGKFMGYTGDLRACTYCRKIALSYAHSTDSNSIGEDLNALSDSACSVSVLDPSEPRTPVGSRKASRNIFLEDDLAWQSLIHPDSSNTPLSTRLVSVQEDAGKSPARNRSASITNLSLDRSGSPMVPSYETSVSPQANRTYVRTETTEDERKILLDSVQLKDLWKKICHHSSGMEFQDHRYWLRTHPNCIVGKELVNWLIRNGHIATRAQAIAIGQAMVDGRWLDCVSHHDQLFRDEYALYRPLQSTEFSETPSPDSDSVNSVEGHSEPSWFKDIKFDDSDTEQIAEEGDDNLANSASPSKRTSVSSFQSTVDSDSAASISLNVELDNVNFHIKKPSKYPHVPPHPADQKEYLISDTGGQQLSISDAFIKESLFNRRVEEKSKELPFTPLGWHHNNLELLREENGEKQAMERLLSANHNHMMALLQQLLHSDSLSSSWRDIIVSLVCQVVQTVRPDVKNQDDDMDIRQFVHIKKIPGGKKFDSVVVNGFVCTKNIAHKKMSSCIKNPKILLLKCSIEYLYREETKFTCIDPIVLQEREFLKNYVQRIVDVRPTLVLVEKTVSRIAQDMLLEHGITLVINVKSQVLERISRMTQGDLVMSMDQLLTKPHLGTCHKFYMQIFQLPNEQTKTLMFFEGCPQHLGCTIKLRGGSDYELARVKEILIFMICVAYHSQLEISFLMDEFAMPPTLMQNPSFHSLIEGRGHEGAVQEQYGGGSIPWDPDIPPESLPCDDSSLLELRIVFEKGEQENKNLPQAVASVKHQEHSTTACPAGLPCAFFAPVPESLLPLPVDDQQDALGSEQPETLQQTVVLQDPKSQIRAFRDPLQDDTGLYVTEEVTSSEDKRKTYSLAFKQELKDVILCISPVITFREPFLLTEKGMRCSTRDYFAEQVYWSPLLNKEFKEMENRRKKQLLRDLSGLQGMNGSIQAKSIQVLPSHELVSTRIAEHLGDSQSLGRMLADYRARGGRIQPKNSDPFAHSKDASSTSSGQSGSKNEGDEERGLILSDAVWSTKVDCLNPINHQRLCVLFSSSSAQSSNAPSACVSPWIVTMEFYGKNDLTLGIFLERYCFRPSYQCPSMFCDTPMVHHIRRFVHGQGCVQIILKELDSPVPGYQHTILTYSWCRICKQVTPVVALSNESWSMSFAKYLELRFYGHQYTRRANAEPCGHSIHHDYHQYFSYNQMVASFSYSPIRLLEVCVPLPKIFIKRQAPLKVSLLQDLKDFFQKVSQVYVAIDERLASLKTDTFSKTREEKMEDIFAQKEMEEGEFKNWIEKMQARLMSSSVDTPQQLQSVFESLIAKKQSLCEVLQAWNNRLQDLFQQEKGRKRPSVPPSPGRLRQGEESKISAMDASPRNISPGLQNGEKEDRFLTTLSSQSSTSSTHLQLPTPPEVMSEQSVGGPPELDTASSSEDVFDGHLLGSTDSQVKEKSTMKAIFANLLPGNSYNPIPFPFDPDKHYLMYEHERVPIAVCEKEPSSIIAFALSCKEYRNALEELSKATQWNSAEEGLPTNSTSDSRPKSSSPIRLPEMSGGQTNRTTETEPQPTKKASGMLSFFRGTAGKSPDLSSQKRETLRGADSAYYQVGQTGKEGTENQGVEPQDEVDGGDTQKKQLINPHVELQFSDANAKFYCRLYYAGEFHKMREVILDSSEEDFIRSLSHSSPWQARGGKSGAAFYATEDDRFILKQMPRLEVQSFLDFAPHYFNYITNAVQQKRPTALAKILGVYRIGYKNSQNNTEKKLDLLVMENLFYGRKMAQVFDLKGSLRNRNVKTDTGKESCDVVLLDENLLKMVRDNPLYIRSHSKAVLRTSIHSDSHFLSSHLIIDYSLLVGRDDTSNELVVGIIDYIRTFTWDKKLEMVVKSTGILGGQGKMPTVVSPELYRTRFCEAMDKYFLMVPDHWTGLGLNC

Row | IC50 (PIKFYVE [1]; Table 3) [nM] | EC50 (PIKFYVE [2]) [nM] | IC50 (PIKFYVE [1]; Table 2) [nM] | Structure (SMILES)
1 | 3 to 10 | 100 to 500 |  | Cc1cccc(-c2ccn(-c3cc(N4CCOCC4)nc(COCc4cn(C)cn4)n3)n2)c1 [Compound 297, 4-(2-(((1-methyl-1H-imidazol-4-yl)methoxy)methyl)-6-(3-(m-tolyl)-1H-pyrazol-1-yl)pyrimidin-4-yl)morpholine]
2 | < 3 | < 20 |  | Cc1cccc(-c2cc([C@H](C)O)n(-c3cc(N4CCOCC4)nc(OCCc4cnn(C)c4)n3)n2)c1 (single isomer, unassigned) [Compound 313]
3 | < 3 | 100 to 500 |  | Cc1cccc(-c2ccn(-c3cc(N4CCOCC4)nc(OC4COC4)n3)n2)c1 [Compound 110, 4-(2-(oxetan-3-yloxy)-6-(3-(m-tolyl)-1H-pyrazol-1-yl)pyrimidin-4-yl)morpholine]
4 | 3 to 10 | 100 to 500 |  | CO[C@H](CO)c1nc(N2CCOCC2)cc(-n2nc(-c3cccc(C)c3)cc2C)n1 [Compound 225, (S)-2-methoxy-2-(4-(5-methyl-3-(m-tolyl)-1H-pyrazol-1-yl)-6-morpholinopyrimidin-2-yl)ethan-1-ol]
5 | < 3 | < 20 |  | Cn1cc(CCOc2nc(N3CCOCC3)cc(-n3ccc(-c4cccc(CO)c4)n3)n2)cn1 [Compound 179, (3-(1-(2-(2-(1-methyl-1H-pyrazol-4-yl)ethoxy)-6-morpholinopyrimidin-4-yl)-1H-pyrazol-3-yl)phenyl)methanol]
6 | 100 to 5000 | > 5000 |  | Cn1cc(CCOc2nc(N3CCOCC3)cc(-n3ccc(C(=O)O)n3)n2)cn1 [Compound 178, 1-(2-(2-(1-methyl-1H-pyrazol-4-yl)ethoxy)-6-morpholinopyrimidin-4-yl)-1H-pyrazole-3-carboxylic acid]
7 | 3 to 10 | 500 to 5000 |  | Cc1cccc(-c2ccn(-c3cc(N4CCOCC4)nc([C@@H](CO)OC(F)F)n3)n2)c1 (single isomer, unassigned) [Compound 309]
8 | 3 to 10 | 100 to 500 |  | CO[C@H](CO)c1nc(N2CCOCC2)cc(-n2nc(-c3cccc(C)c3)cc2C)n1 (single isomer, unassigned) [Compound 224]
9 | 10 to 100 | 500 to 5000 |  | Cc1cccc(-c2ccn(-c3cc(N4CCOCC4)nc(C4CCOCC4)n3)n2)c1 [Compound 326, 4-(2-(tetrahydro-2H-pyran-4-yl)-6-(3-(m-tolyl)-1H-pyrazol-1-yl)pyrimidin-4-yl)morpholine]
10 | 3 to 10 | 100 to 500 |  | Cc1cccc(-c2ccn(-c3cc(N4CCOCC4)nc(OCC4CC4)n3)n2)c1 [Compound 101, 4-(2-(cyclopropyl-methoxy)-6-(3-(m-tolyl)-1H-pyrazol-1-yl)pyrimidin-4-yl)morpholine]
11 | 10 to 100 | > 5000 |  | Cc1cc(-c2cccc3c2OCCN3)nn1-c1cc(N2CCOCC2)nc(OCCc2cnn(C)c2)n1 [Compound 245, 8-(5-methyl-1-(2-(2-(1-methyl-1H-pyrazol-4-yl)ethoxy)-6-morpholinopyrimidin-4-yl)-1H-pyrazol-3-yl)-3,4-dihydro-2H-benzo[b][1,4]oxazine]
12 | < 3 | 100 to 500 |  | Cn1ccc(COc2nc(N3CCOCC3)cc(-n3ccc(-c4ccccc4)n3)n2)n1 [Compound 115, 4-(2-((1-methyl-1H-pyrazol-3-yl)methoxy)-6-(3-phenyl-1H-pyrazol-1-yl)pyrimidin-4-yl)morpholine]
13 | 3 to 10 | 100 to 500 |  | Cc1cccc(-c2ccn(-c3cc(N4CCOCC4)nc(OCCc4cnn(C)c4)n3)n2)n1 [Compound 190, 4-(2-(2-(1-methyl-1H-pyrazol-4-yl)ethoxy)-6-(3-(6-methylpyridin-2-yl)-1H-pyrazol-1-yl)pyrimidin-4-yl)morpholine]
14 | 3 to 10 | 100 to 500 |  | Cn1cc(CCOc2nc(N3CCOCC3)cc(-n3ccc(-c4ccccn4)n3)n2)cn1 [Compound 194, 4-(2-(2-(1-methyl-1H-pyrazol-4-yl)ethoxy)-6-(3-(pyridin-2-yl)-1H-pyrazol-1-yl)pyrimidin-4-yl)morpholine]
15 | 10 to 100 | 500 to 5000 |  | Cc1cccc(-c2ccn(-c3cc(N4CCOCC4)c4[nH]c(C)cc4n3)n2)c1 [Compound 334, 4-(2-methyl-5-(3-(m-tolyl)-1H-pyrazol-1-yl)-1H-pyrrolo[3,2-b]pyridin-7-yl)morpholine]
16 | 3 to 10 | 100 to 500 |  | COC(CO)c1nc(N2CCOCC2)cc(-n2ccc(-c3cccc(C)c3)n2)n1 (racemic) [Compound 156, 2-methoxy-2-(4-morpholino-6-(3-(m-tolyl)-1H-pyrazol-1-yl)pyrimidin-2-yl)ethan-1-ol]
17 | 10 to 100 | 100 to 500 |  | Cn1cc(CCOc2nc(N3CCOCC3)cc(-n3ccc(-c4cccc(C#N)c4)n3)n2)cn1 [Compound 126, 3-(1-(2-(2-(1-methyl-1H-pyrazol-4-yl)ethoxy)-6-morpholino-pyrimidin-4-yl)-1H-pyrazol-3-yl)benzonitrile]
18 | 10 to 100 | > 5000 |  | Cc1cc(Oc2ccn(-c3cc(N4CCOCC4)nc(OCCc4cnn(C)c4)n3)n2)ccn1 [Compound 302, 4-(2-(2-(1-methyl-1H-pyrazol-4-yl)ethoxy)-6-(3-((2-methylpyridin-4-yl)ox)-1H-pyrazol-1-yl)pyrimidin-4-yl)morpholine]

Row | IC50 (PIKFYVE [1]; Table 3) [nM] | EC50 (PIKFYVE [2]) [nM] | IC50 (PIKFYVE [1]; Table 2) [nM] | Structure (SMILES)
19 | 10 to 100 | 500 to 5000 |  | CO[C@H](CO)c1nc(N2CCO[C@@H](C)C2)cc(-n2ccc(-c3cccc(C)c3)n2)n1 (single isomer, unassigned) [Compound 305]
20 | < 3 | < 20 |  | COc1ccc(CCOc2nc(N3CCOCC3)cc(-n3ccc(-c4cccc(C)c4)n3)n2)cc1OC [Compound 105, 4-(2-(3,4-dimethoxy-phenethoxy)-6-(3-(m-tolyl)-1H-pyrazol-1-yl)pyrimidin-4-yl)morpholine]
21 | < 3 | 20 to 100 |  | CCc1cc(-c2ccccc2)nn1-c1cc(N2CCOCC2)nc(OCCc2cnn(C)c2)n1 [Compound 218, 4-(6-(5-ethyl-3-phenyl-1H-pyrazol-1-yl)-2-(2-(1-methyl-1H-pyrazol-4-yl)ethoxy)pyrimidin-4-yl)morpholine]
22 | 3 to 10 | > 5000 |  | Cc1cccc(-c2ccn(-c3cc(N4CCOCC4)nc([C@H]4CCOC4)n3)n2)c1 (single isomer, unassigned) [Compound 329]
23 |  | 20 to 100 | < 5 | Cn1cc(C(O)C#Cc2nc(N3CCOCC3)cc(-n3ccc(-c4ccccc4)n3)n2)cn1 (stereo not drawn) [Compound 80, 1-(1-methyl-1H-pyrazol-4-yl)-3-(4-morpholino-6-(3-phenyl-1H-pyrazol-1-yl)pyrimidin-2-yl)prop-2-yn-1-ol]
24 | 10 to 100 | 500 to 5000 |  | Cc1cccc(-c2ccn(-c3cc(N4CCOCC4)nc(OCCCc4ccco4)n3)n2)c1 [Compound 112, 4-(2-(3-(furan-2-yl)propoxy)-6-(3-(m-tolyl)-1H-pyrazol-1-yl)pyrimidin-4-yl)morpholine]
25 | 3 to 10 | 100 to 500 |  | COC(C)(C)c1nc(N2CCOCC2)cc(-n2ccc(-c3cccc(C)c3)n2)n1 [Compound 347, 4-(2-(2-methoxypropan-2-yl)-6-(3-(m-tolyl)-1H-pyrazol-1-yl)pyrimidin-4-yl)morpholine]
26 | < 3 | 500 to 5000 |  | CO[C@H](CO)c1nc(N2CCOCC2)cc(-n2nc(-c3csc4ccccc34)cc2C)n1 [Compound 278, (S)-2-(4-(3-(benzo[b]thiophen-3-yl)-5-methyl-1H-pyrazol-1-yl)-6-morpholinopyrimidin-2-yl)-2-methoxyethan-1-ol]
27 | < 3 | < 20 |  | Cc1cc(-c2c[nH]c3ccccc23)nn1-c1cc(N2CCOCC2)nc(C2COCCO2)n1 (single isomer, unassigned) [Compound 345]
28 | 10 to 100 | 500 to 5000 |  | Cc1cccc(-c2ccn(-c3cc(N4CCOCC4)nc([C@@H]4COCCO4)n3)n2)c1 (single isomer, unassigned) [Compound 324]
29 | < 3 | 100 to 500 |  | CO[C@H](CO)c1nc(N2CCOCC2)cc(-n2ccc(-c3csc4ccccc34)n2)n1 (single isomer, unassigned) [Compound 258]
30 | 100 to 5000 | > 5000 |  | Cn1cc(CCOc2nc(N3CCOCC3)cc(-n3ccc(Oc4ccncc4)n3)n2)cn1 [Compound 303, 4-(2-(2-(1-methyl-1H-pyrazol-4-yl)ethoxy)-6-(3-(pyridin-4-yloxy)-1H-pyrazol-1-yl)pyrimidin-4-yl)morpholine]
31 | 100 to 5000 | > 5000 |  | Cn1cc(CCOc2nc(N3CCOCC3)cc(-n3ccc(C(=O)N4CCCCC4)n3)n2)cn1 [Compound 172, (1-(2-(2-(1-methyl-1H-pyrazol-4-yl)ethoxy)-6-morpholinopyrimidin-4-yl)-1H-pyrazol-3-yl)(piperidin-1-yl)methanone]
32 | 10 to 100 | 500 to 5000 |  | CO[C@@H](CO)c1nc(N2CCO[C@H](C)C2)cc(-n2ccc(-c3cccc(C)c3)n2)n1 (single isomer, unassigned) [Compound 308]
33 |  | > 5000 | 5 to 100 | COC(=O)c1ccn(-c2cc(N3CCOCC3)nc(OCCc3cnn(C)c3)n2)n1 [Compound 70]
34 | < 3 | 20 to 100 |  | Cc1cc(-c2ccccc2)nn1-c1cc(N2CCOCC2)nc(OCCc2cnn(C)c2)n1 [Compound 127, 4-(2-(2-(1-methyl-1H-pyrazol-4-yl)ethoxy)-6-(5-methyl-3-phenyl-1H-pyrazol-1-yl)pyrimidin-4-yl)morpholine]
35 | 3 to 10 | 100 to 500 |  | COC(CO)(c1ccccc1)c1nc(N2CCOCC2)cc(-n2ccc(-c3cccc(C)c3)n2)n1 (stereo not drawn) [Compound 229, 2-methoxy-2-(4-morpholino-6-(3-(m-tolyl)-1H-pyrazol-1-yl)pyrimidin-2-yl)-2-phenylethan-1-ol]
36 |  | 20 to 100 | < 5 | Cc1cccc(-c2ccn(-c3cc(N4CCOCC4)nc(OCCc4ccnn4C)n3)n2)c1 [Compound 55, 4-(2-(2-(1-methyl-1H-pyrazol-5-yl)ethoxy)-6-(3-(m-tolyl)-1H-pyrazol-1-yl)pyrimidin-4-yl)morpholine]
